Data on 21 molecules can be found in patent US8138205B2, “Heteroarylalkoxy-substituted quinolone inhibitors of PDE4” (Kalypsys, Inc., priority 2006, dated 2012).

Where only a bound is given, the exact number is not on record here.

One data set can be described thus: Solubility Protocol. Format: physicochemical. The note with it: aqueous buffer, thermodynamic from solid; pH 7.4, 0.1 M sodium phosphate buffer. The protocol: About 5 mg of a compound was mixed with 500 μL of pH 7.4, 0.1 M sodium phosphate buffer. The mixture was adjusted to the original pH of 7.4 and then mixed overnight or longer via rotary mixing. The sample was checked for pH and then filtered through a 0.45 μm filter. If the pH drifted away, the sample was adjusted to its original pH and mixed for at least 15 minutes before filtration. The filtrate was analyzed using HPLC.

Another data set is described as follows: Stability Protocol. Format: physicochemical. The note with it: pH 7.4 sodium phosphate buffer, preliminary shelf life (T90) estimated from stressed samples. The protocol: About 3 mg of a compound was dissolved in 3 mL of acetonitrile/water mixture (50/50). 100 μL of the stock solution was added to 20 mL each of 0.025 M pH 5.0 sodium acetate buffer (A5.0), 0.025 M pH 5.0 citrate buffer (C5.0) and 0.025 M pH 7.4 sodium phosphate buffer (P7.4). A two mL aliquot of each solution was kept in a glass vial equipped a cap lined with Teflon. Two vials containing the solution were stored at 4° C. or −20° C. as control. Other aliquots were stressed at RT, 45° C. or 75° C. for specified time check points, e.g. 1 day, 1 w, 2 w, 4 w, 8 w,12 w. The stressed samples in duplicate were assayed against the control using HPLC. The results were reported in % degradation. Preliminary shelf life (T90) was estimated assuming the rate of chemical degradation is double when the temperature is up 10° C.

The target in another data set is T1, PDE4B (Homo sapiens, UniProt Q07343).
T1 construct: hex-histidine (His6) (N); made in house
In words: PDE/AK Biological Activity Assay (coupled PDE/adenylate kinase bioluminescent assay). Format: biochemical. The note with it: catalytic domain of PDE4B, read-out: PDE4 Enzyme IC50. The text has this: Phosphodiesterases regulate the activity of the second messenger cyclic adenosine monophosphate (cAMP) by hydrolyzing cAMP to adenosine monophosphate (AMP). We developed a coupled PDE/AK bioluminescent high-throughput assay to measure the activity of phosphodiesterases. In the PDE/AK assay, the AMP produced from the hydrolysis of cAMP by phosphodiesterase is converted to adenosine diphosphate (ADP) by the phosphotransferase activity of adenylate kinase (also known as ADK or myokinase). Adenylate kinase will catalyze the conversion of 1 mole of AMP and 1 mole of ATP into 2 moles of ADP. Thus the conversion of AMP to ADP will result in the subsequent loss of ATP. The decrease in ATP concentration can be monitored as light output using luciferase in a reaction that requires ATP to produce light. The PDE/AK assay uses luciferase, which catalyzes the production of light from ATP present in the reaction mix. The amount of emitted light is inversely proportional to the level of AMP present in the reaction. Test compounds are incubated with the phosphodiesterases and phosphodiesterase inhibitors will decrease the rate of cAMP hydrolysis and decrease the subsequent production of AMP. Thus phosphodiesterase inhibitors will decrease the conversion of ATP to ADP and result in the greatest emission of light.
Compounds may be screened for functional potency in in vitro biochemical assays for their ability to inhibit the activity of phosphodiesterase (PDE) enzymes. A coupled PDE/AK assay was utilized to measure the inhibitory activity of compounds on PDE isoforms. The catalytic domain of PDE4B was fused to an amino-terminus hex-histidine affinity tag and purified. PDE4B enzyme was incubated with compounds for 10 minutes. Cyclic AMP substrate, ATP and adenylate kinase were then added to the PDE enzyme mix and incubated for 45 minutes at room temperature. A commercial ATP detection assay, Perkin Elmer's easyLite ATP detection reagent, was then added to measure the relative amount of ATP present in the reaction. After 10 minute incubation, the luminescent signal was quantitated with either the Perkin Elmer Viewlux or Molecular Devices Acquest or Analyst. Roflumilast and Rolipram are the positive controls used in the assay.

T1 sequence (Q07343 330-659 limits assumed, species assumed): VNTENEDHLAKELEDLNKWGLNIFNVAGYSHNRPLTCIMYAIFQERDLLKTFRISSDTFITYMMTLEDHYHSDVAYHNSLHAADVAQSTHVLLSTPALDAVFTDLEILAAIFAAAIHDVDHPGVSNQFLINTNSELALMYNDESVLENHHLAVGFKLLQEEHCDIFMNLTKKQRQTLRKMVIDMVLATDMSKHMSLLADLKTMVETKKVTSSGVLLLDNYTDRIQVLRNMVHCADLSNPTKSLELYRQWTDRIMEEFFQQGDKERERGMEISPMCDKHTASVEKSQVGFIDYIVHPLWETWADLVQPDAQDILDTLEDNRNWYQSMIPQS

Usually solubility stands for the concentration that dissolves in the medium under given conditions. With `COc1ccc2c(Nc3c(Cl)cncc3Cl)cc(=O)[nH]c2c1OCCCCCC(=O)O` [Example 11, 6-(4-(3,5-Dichloropyridin-4-ylamino)-7-methoxy-2-oxo-1,2-dihydroquinolin-8-yloxy)hexanoic acid], the solubility in “Solubility Protocol” is at least 1000 µg/mL. The “Stability, pH 7.4” value in the data set “Stability Protocol” is listed as “+ (+ indicates ≧1 Year)”.

In “Solubility Protocol”, `COc1ccc2c(Nc3c(Cl)cncc3Cl)cc(=O)[nH]c2c1OCCCCCN(C)C` [Example 14, 4-(3,5-Dichloropyridin-4-ylamino)-8-(5-(dimethylamino)pentyloxy)-7-methoxyquinolin-2(1H)-one] displayed a solubility of at least 1000 µg/mL. Further, the “Stability, pH 7.4” value in the data set “Stability Protocol” is “+ (+ indicates ≧1 Year)”.

By IC50 is commonly meant the concentration at which inhibition is half-maximal. As to `COc1ccc2c(Nc3c(Cl)cncc3Cl)cc(=O)[nH]c2c1OCCCCCCN1CCN(C)CC1` [Example 15, 4-(3,5-Dichloropyridin-4-ylamino)-7-methoxy-8-(6-(4-methylpiperazin-1-yl)hexyloxy)quinolin-2(1H)-one], the IC50 on PDE4B is under 1000 nM. Also, in the data set “Solubility Protocol”, the solubility was at least 1000 µg/mL. In “Stability Protocol”, the “Stability, pH 7.4” value is given as “+ (+ indicates ≧1 Year)”.

Take `COc1ccc2c(Nc3c(Cl)cncc3Cl)cc(=O)[nH]c2c1OCCCCCCN1CCOCC1` [Example 16, 4-(3,5-Dichloropyridin-4-ylamino)-7-methoxy-8-(6-morpholinohexyloxy)quinolin-2(1H)-one]: the 50% inhibitory concentration (IC50) on PDE4B is under 1000 nM. The molecule further gave a solubility in the data set “Solubility Protocol” of at least 1000 µg/mL. For the same molecule, in the data set “Stability Protocol”, the “Stability, pH 7.4” value is “+ (+ indicates ≧1 Year)”.

For `COc1ccc2c(Nc3c(Cl)cncc3Cl)cc(=O)[nH]c2c1OCCCN1CCN(C)CC1` [Example 18, 4-(3,5-dichloropyridin-4-ylamino)-7-methoxy-8-(3-(4-methylpiperazin-1-yl)propoxy)quinolin-2(1H)-one], the IC50 at PDE4B is under 1000 nM. For the same molecule, the solubility in the data set “Solubility Protocol” was at least 1000 µg/mL. Besides, the “Stability, pH 7.4” value in “Stability Protocol” is “+ (+ indicates ≧1 Year)”.

For `COc1ccc2c(Nc3c(Cl)cncc3Cl)cc(=O)[nH]c2c1OCCCN1CCOCC1` [Example 19, 4-(3,5-dichloropyridin-4-ylamino)-7-methoxy-8-(3-morpholinopropoxy)quinolin-2(1H)-one], the IC50 on PDE4B is under 1000 nM. Further, the solubility in the data set “Solubility Protocol” was at least 1000 µg/mL. For the same molecule, the “Stability, pH 7.4” value in “Stability Protocol” was “+ (+ indicates ≧1 Year)”.

`COc1ccc2c(Nc3c(Cl)cncc3Cl)cc(=O)[nH]c2c1OCCCCCCCN1CCN(C)CC1` [Example 20, 4-(3,5-dichloropyridin-4-ylamino)-7-methoxy-8-(7-(4-methylpiperazin-1-yl)heptyloxy)quinolin-2(1H)-one]: the 50% inhibitory concentration (IC50) on PDE4B is under 1000 nM. The same molecule yielded a solubility in the data set “Solubility Protocol” of at least 1000 µg/mL. Besides, the “Stability, pH 7.4” value in “Stability Protocol” is “+ (+ indicates ≧1 Year)”.

On to `COc1ccc2c(Nc3c(Cl)cncc3Cl)cc(=O)[nH]c2c1OCCCCCCCCN1CCN(C)CC1` [Example 21, 4-(3,5-dichloropyridin-4-ylamino)-7-methoxy-8-(8-(4-methylpiperazin-1-yl)octyloxy)quinolin-2(1H)-one], for which, on PDE4B, the IC50 was under 1000 nM. In the data set “Solubility Protocol”, the solubility was at least 1000 µg/mL. Further, the “Stability, pH 7.4” value in the data set “Stability Protocol” is given as “+ (+ indicates ≧1 Year)”.

Take `COc1ccc2c(Nc3c(Cl)cncc3Cl)cc(=O)[nH]c2c1OCCCCCCN1CCNCC1` [Example 22, 4-(3,5-Dichloropyridin-4-ylamino)-7-methoxy-8-(6-(piperazin-1-yl)hexyloxy)quinolin-2(1H)-one]: on PDE4B, the concentration for half-maximal inhibition (IC50) is under 1000 nM. This molecule returned a solubility in the data set “Solubility Protocol” of at least 1000 µg/mL. For the same molecule, the “Stability, pH 7.4” value in “Stability Protocol” is “+ (+ indicates ≧1 Year)”.

For the molecule `COc1ccc2c(Nc3c(C)cncc3C)cc(=O)[nH]c2c1OCCCCCCN1CCOCC1` [Example 35, 4-(3,5-Dimethylpyridin-4-ylamino)-7-methoxy-8-(6-morpholinohexyloxy)quinolin-2(1H)-one], the half-maximal inhibitory concentration (IC50) at PDE4B was under 1000 nM. Also, the solubility in “Solubility Protocol” is at least 1000 µg/mL. Further, the “Stability, pH 7.4” value in “Stability Protocol” was “+ (+ indicates ≧1 Year)”.

Take `COc1ccc2c(Nc3c(C)cncc3C)cc(=O)[nH]c2c1OCCCCCCN(C)C` [Example 38, 8-(6-(Dimethylamino)hexyloxy)-4-(3,5-dimethylpyridin-4-ylamino)-7-methoxyquinolin-2(1H)-one]: at PDE4B, the IC50 is under 1000 nM. For the same molecule, the solubility in the data set “Solubility Protocol” was at least 1000 µg/mL. For the same molecule, the “Stability, pH 7.4” value in the data set “Stability Protocol” is given as “+ (+ indicates ≧1 Year)”.

For `COc1ccc2c(Nc3c(Cl)cncc3Cl)cc(=O)[nH]c2c1OCCCCC(=O)O` [Example 52, 5-(4-(3,5-dichloropyridin-4-ylamino)-7-methoxy-2-oxo-1,2-dihydroquinolin-8-yloxy)pentanoic acid], the IC50 at PDE4B was under 1000 nM. The molecule also came in with a solubility in the data set “Solubility Protocol” of at least 1000 µg/mL. Besides, the “Stability, pH 7.4” value in “Stability Protocol” was “+ (+ indicates ≧1 Year)”.

As for `COc1ccc2c(Nc3c(Cl)cncc3Cl)cc(=O)[nH]c2c1OCCCCCCC(=O)O` [Example 53, 7-(4-(3,5-dichloropyridin-4-ylamino)-7-methoxy-2-oxo-1,2-dihydroquinolin-8-yloxy)heptanoic acid], the IC50 on PDE4B was under 1000 nM. The molecule further displayed a solubility in “Solubility Protocol” of at least 1000 µg/mL. Also, the “Stability, pH 7.4” value in the data set “Stability Protocol” is given as “+ (+ indicates ≧1 Year)”.

Take `COc1ccc2c(Nc3c(Cl)cncc3Cl)cc(=O)[nH]c2c1OCCCCCCCC(=O)O` [Example 54, 8-(4-(3,5-dichloropyridin-4-ylamino)-7-methoxy-2-oxo-1,2-dihydroquinolin-8-yloxy)octanoic acid]: the IC50 at PDE4B is under 1000 nM. The molecule also showed a solubility in “Solubility Protocol” of at least 1000 µg/mL. The “Stability, pH 7.4” value in the data set “Stability Protocol” was “+ (+ indicates ≧1 Year)”.

On to `COc1ccc2c(Nc3c(Cl)cncc3Cl)cc(=O)[nH]c2c1OCCCC(N)=O` [Example 56, 4-(4-(3,5-dichloropyridin-4-ylamino)-7-methoxy-2-oxo-1,2-dihydroquinolin-8-yloxy)butanamide], for which the half-inhibitory concentration (IC50) on PDE4B was under 1000 nM. Besides, the solubility in “Solubility Protocol” was at least 1000 µg/mL. In the data set “Stability Protocol”, the “Stability, pH 7.4” value was “+ (+ indicates ≧1 Year)”.

Regarding `COc1ccc2c(Nc3c(Cl)cncc3Cl)cc(=O)[nH]c2c1OCCCCC(N)=O` [Example 57, 5-(4-(3,5-dichloropyridin-4-ylamino)-7-methoxy-2-oxo-1,2-dihydroquinolin-8-yloxy)pentanamide], the IC50 on PDE4B was under 1000 nM. In “Solubility Protocol”, the solubility is at least 1000 µg/mL. The “Stability, pH 7.4” value in the data set “Stability Protocol” is given as “+ (+ indicates ≧1 Year)”.

`COc1ccc2c(Nc3c(Cl)cncc3Cl)cc(=O)[nH]c2c1OCC(C)C` [Example 61, 4-(3,5-dichloropyridin-4-ylamino)-8-isobutoxy-7-methoxyquinolin-2(1H)-one]: on PDE4B, the IC50 is under 1000 nM. In addition, in the data set “Stability Protocol”, the “Stability, pH 7.4” value was “+ (+ indicates ≧1 Year)”.

On to `COc1ccc2c(Nc3c(Cl)cncc3Cl)cc(=O)[nH]c2c1OCCCCCc1nn[nH]n1` [Example 69, 8-(5-(2H-tetrazol-5-yl)pentyloxy)-4-(3,5-dichloropyridin-4-ylamino)-7-methoxyquinolin-2(1H)-one], for which, on PDE4B, the concentration for half-maximal inhibition (IC50) was under 1000 nM. Besides, the “Stability, pH 7.4” value in the data set “Stability Protocol” is “+ (+ indicates ≧1 Year)”.

Consider `COc1ccc2c(Nc3c(C)cncc3C)cc(=O)[nH]c2c1OCCCCn1ccnc1` [Example 78, 8-(4-(1H-imidazol-1-yl)butoxy)-4-(3,5-dimethylpyridin-4-ylamino)-7-methoxyquinolin-2(1H)-one], for which the IC50 at PDE4B was under 1000 nM. Moreover, in “Stability Protocol”, the “Stability, pH 7.4” value is “+ (+ indicates ≧1 Year)”.

In the case of `COc1ccc2c(Nc3c(C)cncc3C)cc(=O)[nH]c2c1OCCCCCn1ccnc1` [Example 79, 8-(5-(1H-imidazol-1-yl)pentyloxy)-4-(3,5-dimethylpyridin-4-ylamino)-7-methoxyquinolin-2(1H)-one], the 50% inhibitory concentration (IC50) on PDE4B was under 1000 nM. The “Stability, pH 7.4” value in the data set “Stability Protocol” is given as “+ (+ indicates ≧1 Year)”.

Consider `COc1ccc2c(Nc3c(C)cncc3C)cc(=O)[nH]c2c1OCCCCCCn1ccnc1` [Example 80, 8-(6-(1H-imidazol-1-yl)hexyloxy)-4-(3,5-dimethylpyridin-4-ylamino)-7-methoxyquinolin-2(1H)-one], for which the half-inhibitory concentration (IC50) on PDE4B was under 1000 nM. The solubility in the data set “Solubility Protocol” was at least 1000 µg/mL.
